# Target: CB1 (CNR1) (Homo sapiens, UniProt P21554)
# Assay: cAMP CNR1 Hunter cell line antagonist assay (CB1 assay)
# Assay type: cell-based
# Details: antagonist mode, cAMP CNR1 Hunter cells, EC80 agonist; read-out: CB1 assay, Efficacy (IC50)
# Method in brief: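 Antagonist mode in CNR1 Hunter cells: compound preincubated 30 min at 37 °C, then EC80 agonist for 30 min at 37 °C. cAMP measured by enzyme-fragment complementation chemiluminescence after lysis (1 h) and detection (3 h, room temperature); IC50 fitted from the dose response.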
# Sequence of CB1 (CNR1) (P21554 whole entry): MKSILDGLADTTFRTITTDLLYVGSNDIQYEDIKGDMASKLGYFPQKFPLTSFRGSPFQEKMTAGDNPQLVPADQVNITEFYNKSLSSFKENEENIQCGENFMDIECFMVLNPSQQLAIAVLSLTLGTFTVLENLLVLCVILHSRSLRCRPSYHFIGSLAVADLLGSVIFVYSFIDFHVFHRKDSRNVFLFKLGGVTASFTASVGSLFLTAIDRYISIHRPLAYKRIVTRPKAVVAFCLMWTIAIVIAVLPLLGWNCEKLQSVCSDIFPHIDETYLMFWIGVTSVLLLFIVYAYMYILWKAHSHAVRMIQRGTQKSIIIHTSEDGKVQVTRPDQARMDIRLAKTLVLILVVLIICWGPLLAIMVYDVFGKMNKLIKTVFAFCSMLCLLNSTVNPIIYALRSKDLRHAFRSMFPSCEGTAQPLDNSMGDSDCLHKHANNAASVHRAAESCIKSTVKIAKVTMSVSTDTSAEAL
row,IC50 [µM],Structure (SMILES)
1,1 to 25,CC1Oc2c(cc(Br)cc2S(=O)(=O)Nc2cccc(Cl)c2)N(C)C1=O (stereo not shown) [BC19904]
2,≥ 25,CC1Oc2cc(S(=O)(=O)Nc3cccc(Cl)c3)c(Br)cc2N(C)C1=O (stereo not shown) [BC19905]
3,≥ 25,Cc1ccc(NS(=O)(=O)c2cc(Br)cc3c2OC(C)C(=O)N3C)cc1 (stereo not shown) [BC19906]
4,≥ 25,CC1Oc2cc(S(=O)(=O)Nc3ccc(F)cc3Cl)c(Br)cc2N(C)C1=O (stereo not shown) [BC19907]
5,≥ 25,CC1Oc2c(cc(Br)cc2S(=O)(=O)Nc2ccc(F)cc2Cl)N(C)C1=O (stereo not shown) [BC19908]
6,≥ 25,COc1ccc(NS(=O)(=O)c2cc(Br)cc3c2OC(C)C(=O)N3C)cc1Cl (stereo not shown) [BC19909]
7,≥ 25,CC1Oc2cc(S(=O)(=O)Nc3ccc(F)cc3)c(Br)cc2N(C)C1=O (stereo not shown) [BC19910]
8,≥ 25,CC1Oc2c(cc(Br)cc2S(=O)(=O)Nc2ccc(F)cc2)N(C)C1=O (stereo not shown) [BC19911]
9,≥ 25,Cc1ccc(NS(=O)(=O)c2cc3c(cc2Br)N(C)C(=O)C(C)O3)cc1 (stereo not shown) [BC19912]
10,1 to 25,CCC1Oc2c(cc(Br)cc2S(=O)(=O)Nc2ccc(F)cc2F)N(C)C1=O (stereo not shown) [BC19913]
11,1 to 25,CCC1Oc2cc(S(=O)(=O)Nc3ccc(F)cc3F)c(Br)cc2N(C)C1=O (stereo not shown) [BC19914]
12,1 to 25,CCc1cccc(NS(=O)(=O)c2cc(Br)cc3c2OC(CC)C(=O)N3C)c1 (stereo not shown) [BC19915]
13,1 to 25,CCc1cccc(NS(=O)(=O)c2cc3c(cc2Br)N(C)C(=O)C(CC)O3)c1 (stereo not shown) [BC19916]
14,1 to 25,O=C(O)c1cc2c(c(NS(=O)(=O)c3ccc(F)c(F)c3)c1)N1CCCC1C(=O)N2 (stereo not shown) [BC19917]
15,≥ 25,COc1ccc(NS(=O)(=O)c2cc3c(cc2Br)N(C)C(=O)C(C)O3)cc1Cl (stereo not shown) [BC19919]
16,1 to 25,CC1Oc2cc(S(=O)(=O)Nc3ccc(C#N)cc3)c(Br)cc2N(C)C1=O (stereo not shown) [BC19920]
17,1 to 25,CCC1Oc2c(cc(Br)cc2S(=O)(=O)Nc2ccc(OC(F)(F)F)cc2)N(C)C1=O (stereo not shown) [BC19921]

row,IC50 [µM],Structure (SMILES)
1,≥ 25,CCC1Oc2cc(S(=O)(=O)Nc3ccc(OC(F)(F)F)cc3)c(Br)cc2N(C)C1=O (stereo not shown) [BC19922]
2,≥ 25,CCC1Oc2c(cc(Br)cc2S(=O)(=O)Nc2ccc(C)c(F)c2)N(C)C1=O (stereo not shown) [BC19923]
3,1 to 25,CCC1Oc2cc(S(=O)(=O)Nc3ccc(C)c(F)c3)c(Br)cc2N(C)C1=O (stereo not shown) [BC19924]
4,1 to 25,CCC1Oc2c(cc(Br)cc2S(=O)(=O)Nc2ccc(F)c(F)c2)N(C)C1=O (stereo not shown) [BC19925]
5,≥ 25,CCC1Oc2cc(S(=O)(=O)Nc3ccc(F)c(F)c3)c(Br)cc2N(C)C1=O (stereo not shown) [BC19926]
6,≥ 25,CCC1Oc2c(cc(Br)cc2S(=O)(=O)Nc2ccccc2)N(C)C1=O (stereo not shown) [BC19927]
7,≥ 25,CCC1Oc2cc(S(=O)(=O)Nc3ccccc3)c(Br)cc2N(C)C1=O (stereo not shown) [BC19928]
8,≥ 25,CCC1Oc2c(cc(Br)cc2S(=O)(=O)Nc2ccc(Cl)cc2)N(C)C1=O (stereo not shown) [BC19929]
9,≥ 25,CCC1Oc2cc(S(=O)(=O)Nc3ccc(Cl)cc3)c(Br)cc2N(C)C1=O (stereo not shown) [BC19930]
10,≥ 25,CCc1ccc(NS(=O)(=O)c2cc(Br)cc3c2OC(CC)C(=O)N3C)cc1 (stereo not shown) [BC19931]
11,≥ 25,CCc1ccc(NS(=O)(=O)c2cc3c(cc2Br)N(C)C(=O)C(CC)O3)cc1 (stereo not shown) [BC19932]
12,≥ 25,CCC1Oc2c(cc(Br)cc2S(=O)(=O)Nc2ccc(C(C)C)cc2)N(C)C1=O (stereo not shown) [BC19933]
13,≥ 25,CCC1Oc2cc(S(=O)(=O)Nc3ccc(C(C)C)cc3)c(Br)cc2N(C)C1=O (stereo not shown) [BC19934]
14,≥ 25,CCC1Oc2c(cc(Br)cc2S(=O)(=O)Nc2ccc(OC)cc2)N(C)C1=O (stereo not shown) [BC19935]
15,≥ 25,CCC1Oc2cc(S(=O)(=O)Nc3ccc(OC)cc3)c(Br)cc2N(C)C1=O (stereo not shown) [BC19936]
16,≥ 25,CCC1Oc2c(cc(Br)cc2S(=O)(=O)Nc2ccc(C)c(Cl)c2)N(C)C1=O (stereo not shown) [BC19937]
17,≥ 25,CCC1Oc2cc(S(=O)(=O)Nc3ccc(C)c(Cl)c3)c(Br)cc2N(C)C1=O (stereo not shown) [BC19938]

# Source: patent publication US20240000806A1, “METHODS AND MATERIALS FOR INHIBITING CB1 ACTIVITY” (University of Pittsburgh - Of the Commonwealth System of …, priority 2020, published 2024)
